In patent publication US20250134874A1, “PHARMACEUTICAL FORMULATIONS COMPRISING 3-({[(4R)-7-{METHYL[4-(PROPAN-2-YL)PHENYL]AMINO}-3,4-DIHYDRO-2H-1-BENZOPYRAN-4-YL]METHYL}AMINO)PYRIDINE-4-CARBOXYLIC ACID” (TACHYON THERAPEUTICS, INC., priority 2021, published 2025):

Test system: 301 cancer cell lines from different tumor types (OncoPanel; HD Biosciences)
Assay: 2D cell viability inhibition assay (CellTiter-Glo) in cancer cell line panel
Assay type: cell-based
Parameters: key to AUC: AUC as fraction of the no-inhibition area (dose range × 0–100 % of control)
Details: for Emax: in %
Experimental: In a larger screening study, compound 1 was evaluated across a broad cancer cell line panel (OncoPanel; HD Biosciences) composed of 301 cancer cell lines from different tumor types.
2D cell viability inhibition assays were performed in multiwell plates seeded with cells from the panel. After seeding, the plates were cultured overnight in a humidified incubator at 37° C. to promote adherence. Assays were initiated in individual wells by adding either DMSO as a vehicle control, growth media as a blank, or serially diluted compound 1 (10 μM to 0.0005 μM with 1:3 serial dilution). Cultures were incubated for 168 hours after which the number of viable cells in each test well was assessed using the CellTiter-Glo® Luminescent Cell Viability Assay. Luminescence readouts were performed using an EnVision® Multilabel Reader and the compound 1 readouts were normalized to the DMSO control readouts, expressed as a percent of the control. Outliers were flagged out by visual inspection. Percent of control was plotted against the corresponding compound 1 concentration and the absolute IC50 value was determined using four-parameter logistic non-linear regression as the concentration where inhibition was 50% of the control. For maximum inhibition <50%, the absolute IC50 was reported as >10. In addition to EC50 and IC50, AUC was determined and was normalized to the area corresponding to theoretical no-inhibition (the rectangular area defined by the compound dose range and 0 to 100 in y). Emax was recorded as the minimum in y with the compound dose range. For those cell lines where Emax>40, EC50 was manually set to 10 μM. A hierarchical clustering algorithm based on Euclidean distance between the standardized input values and “Ward.D” method as implemented in R hclust function was used to visualize the compound 1 cellular potency data. The sensitive/moderate/resistant calls for each cell line was determined by visually inspecting the resulting clustering dendrogram. All the analyses were done in R Core Team.

CC(C)c1ccc(N(C)c2ccc3c(c2)OCC[C@H]3CNc2cnccc2C(=O)O)cc1 [Compound 1, 3-({[(4R)-7-{methyl[4-(propan-2-yl)phenyl]amino}-3,4-dihydro-2H-1-benzopyran-4-yl]methyl}amino)pyridine-4-carboxylic acid]
AUC (RPMI7951, skin, NS, 168 hours): 0.8067 | AUC (RPMI8226 cell line): 0.4363 | Emax (RPMI8226 cell line): 12.46 | AUC (RT11284 cell line): 0.3717 | AUC (SAOS2, bone, NS, 168 hours): 1.081 | AUC (SCABER cell line): 0.5687 | Emax (SCABER cell line): 32.32 | AUC (SCC4 cell line): 0.4619 | Emax (SCC4 cell line): 26.08 | AUC (SCC9, upper aerodigestive tract, squamous cell carcinoma, 168 hours): 0.9424 | AUC (SCC15, upper aerodigestive tract, squamous cell carcinoma, 168 hours): 0.9489 | AUC (SCC25, upper aerodigestive tract, squamous cell carcinoma, 168 hours): 0.7789 | AUC (SHSY5Y cell line): 0.4927 | Emax (SHSY5Y cell line): 25.04 | AUC (SKBR3 cell line): 0.4396 | Emax (SKBR3 cell line): 26.59 | AUC (SKCO1 cell line): 0.5952 | AUC (SKHEP1, liver, adenocarcinoma, 168 hours): 0.7091 | AUC (SKLU1 cell line): 0.5662 | AUC (SKMEL1 cell line): 0.4427 | Emax (SKMEL1 cell line): 22.0664 | AUC (SKMEL2 cell line): 0.6392 | AUC (SKMEL3 cell line): 0.6207 | AUC (SKMEL5 cell line): 0.4074 | Emax (SKMEL5 cell line): 8.228 | AUC (SKMEL24, skin, NS, 168 hours): 0.7882 | AUC (SKMEL28 cell line): 0.2796 | AUC (SKMEL31, skin, NS, 168 hours): 0.7393 | AUC (SKMES1 cell line): 0.6069 | AUC (SKNSH, autonomic ganglia, NS, 168 hours): 0.7295 | AUC (SKOV3, ovary, adenocarcinoma, 168 hours): 0.9901 | AUC (SNB19 cell line): 0.4677 | Emax (SNB19 cell line): 20.73 | AUC (SNGM cell line): 0.9165 | EC50 (SNGM cell line): 4140 nM | IC50 (SNGM cell line): 4900 nM | AUC (SNU5 cell line): 0.6837 | AUC (SNU16 cell line): 0.2821 | AUC (SNU398 cell line): 0.4911 | Emax (SNU398 cell line): 25.8616 | EC50 (SNU668, SNU668 cell line): 12.8 nM | IC50 (SNU668, SNU668 cell line): 18.9 nM | AUC (SNU668 cell line): 0.464 | AUC (SNU761 cell line): 0.5814 | EC50 (SNU761 cell line): ≥ 10000 nM | IC50 (SNU761 cell line): 39.7 nM | IC50 (SNU878, SNU878 cell line): > 10000 nM | AUC (SNU878 cell line): 0.6648 | AUC (SNU886 cell line): 0.6425 | IC50 (SNU-886, SNU886 cell line): > 10000 nM | AUC (SNUC1, large intestine, adenocarcinoma, 168 hours): 0.7478 | AUC (SNUC2A cell line): 0.615 | EC50 (SNUC2A cell line): 24.5 nM | IC50 (SNUC2A cell line): 52.5 nM | AUC (SUPT1 cell line): 0.6913 | AUC (SW48 cell line): 0.6038 | AUC (SW480 cell line): 0.409 | Emax (SW480 cell line): 20.36 | IC50 (SW579, 168 h, SW579, thyroid, anaplastic carcinoma, 168 hours): > 10000 nM | AUC (SW579, thyroid, anaplastic carcinoma, 168 hours): 0.9203 | AUC (SW620 cell line): 0.4658 | AUC (SW780 cell line): 0.4491 | Emax (SW780 cell line): 13.9761 | AUC (SW837, large intestine, adenocarcinoma, 168 hours): 0.7109 | IC50 (SW1271, 168 h, SW1271, lung, small cell carcinoma, 168 hours): > 10000 nM | AUC (SW1271, lung, small cell carcinoma, 168 hours): 0.8179 | AUC (SW1417, large intestine, adenocarcinoma, 168 hours): 0.9634 | AUC (SW1463 cell line): 0.3408 | Emax (SW1463 cell line): 7.126 | AUC (SW1710 cell line): 0.5768 | AUC (SW1990 cell line): 0.6894 | AUC (T24, urinary tract, transitional cell carcinoma, 168 hours): 0.9289 | AUC (T84 cell line): 0.4928 | AUC (T.T cell line): 0.4321 | Emax (T.T cell line): 24.08 | AUC (TALL1 cell line): 0.1999 | AUC (TE1, oesophagus, squamous cell carcinoma, 168 hours): 0.938 | AUC (TE4 cell line): 0.3948 | EC50 (TE4 cell line): 9.11 nM | IC50 (TE4 cell line): 12.7 nM | Emax (TE4 cell line): 11.49 | AUC (TE5 cell line): 0.3877 | Emax (TE5 cell line): 15.07 | AUC (TE6 cell line): 0.3625 | Emax (TE6 cell line): 14.02 | AUC (TE8, oesophagus, squamous cell carcinoma, 168 hours): 0.816 | AUC (TE9 cell line): 0.4247 | Emax (TE9 cell line): 25.31 | AUC (TE10 cell line): 0.5293 | Emax (TE10 cell line): 29.65 | AUC (TE11 cell line): 0.304 | AUC (TE14 cell line): 0.3068 | EC50 (TE14 cell line): 2.32 nM | IC50 (TE14 cell line): 3.39 nM | AUC (TE15, oesophagus, squamous cell carcinoma, 168 hours): 1.084 | AUC (TF1 cell line): 0.2883 | AUC (THP1 cell line): 0.3371 | AUC (TOV112D cell line): 0.3964 | Emax (TOV112D cell line): 23.19 | AUC (U2OS cell line): 0.4065 | Emax (U2OS cell line): 9.064 | AUC (U87MG cell line): 0.514 | Emax (U87MG cell line): 38.45 | AUC (U937 cell line): 0.1808 | AUC (UACC812, breast, ductal carcinoma, 168 hours): 0.8418 | AUC (UMUC3 cell line): 0.5934 | AUC (VCAP, prostate, adenocarcinoma, 168 hours): 0.7822 | AUC (WM115 cell line): 0.6097 | AUC (WM2664 cell line): 0.5838 | AUC (WSUDLCL2 cell line): 0.2829 | AUC (YD38 cell line): 0.2983 | EC50 (YD38 cell line): 3.55 nM | IC50 (YD38 cell line): 3.77 nM
